In patent publication US7629126B2, “PIM-3 kinase as a target for type 2 diabetes mellitus” (Sanofi-Aventis Deutschland GmbH, priority 2002, dated 2009):
“And” between values parts separate entries of the source, which are not always exact repeats. Identical values can stand only once.

Legend:
PIM-3 [1] = test: Gene expression of PIM-3 in 3T3-L1 adipocytes treated with antidiabetic drugs (PPARγ agonists), Affymetrix array; format: cell-based, murine
Description: 3T3-L1 preadipocytes were grown at 37° C. in 10% CO2 in Dulbecco's modified Eagle's medium (DMEM) containing 1 g/l glucose and 10% fetal calf serum (FCS). For differentiation into mature adipocytes, confluent preadipocytes were cultured for four days in DMEM supplemented with 4.5 g/l glucose, 10% FCS, 50 μg/ml ascorbic acid, 1 μM biotin, 17 μM pantothenic acid (=basal medium), 500 μM 3-isobutylmethylxanthine, 0.25 μM dexamethasone and 1 μg/ml human recombinant insulin. During the four day treatment the medium was changed once.
Differentiated 3T3-L1 cells were maintained in basal medium for one additional day and subsequently kept in serum-free basal medium for four hours. Then, PPARγ agonists diluted in basal medium were added to the adipocytes as described below centrations and conditions see table 5):
RNA was isolated using the TRIzol reagent (Life Technologies, Karlsruhe, Germany) and treated with DNase I by applying the DNA-free kit (Ambion, Austin, Tex., US).
Further purification of the RNA was achieved using the RNeasy mini kit (Qiagen, Hilden, Germany) and quality/quantity control was done with the 2100Bioanalyzer (Agilent, Böblingen, Germany). 10 μg of total RNA was converted into biotinylated cRNA according to the GeneChip expression analysis technical manual (Affymetrix, Santa Clara, Calif., US). Briefly, first and second strand synthesis was performed by applying the SuperScript double stranded cDNA synthesis kit (Life Technologies, Kardsruhe, Germany) and biotin labeled cRNA was produced with the BioArray RNA transcript labeling kit (Enzo Diagnostics, Framingdale, N.Y., US). 10 μg of cRNA was fragmented by heat, added to the GeneChip eukaryotic hybridization control solution (Affymetrix) and hybridized to a GeneChip MG-U74Av2 array (Affymetrix) by rotating for 16 hours at 45° C. Washing, staining and scanning of the array was carried outwith standard procedures using the hardware provided by Affymetrix. Raw data was analyzed by applying the microarray suite version 4.0.1 software (Affymetrix, see above).
The entire experiment was repeated twice to provide three biological replicates.
Data analysis including the estimation of fold changes was performed as described above. Fold change values for PIM-3 were obtained by comparing the compound treated samples against the untreated controls for each time point.

ZDF rats = test: HbA1c as marker of long-term blood glucose in ZDF rats treated with Rosiglitazone; format: in vivo, rat; conditions: ZDF rats treated 14 weeks, 3 mg/kg/day, single animals R1-R5
Description: (§1) Zucker Diabetic Fatty (ZDF/Gmi.TM.−fa/fa) male rats as well as their lean fa+/fa− counterparts, aged 5 weeks (control 1-5, ZDF 1-10)were obtained from Genetic Models Inc. (Indianapolis, Ind.). The rats were given free access to food and water. The ZDF animals were split into 2 groups: group 1(animals ZDF 1-5) was not treated with any agent, whereas the second group was treated for 14 weeks with the antidiabetic drug Rosiglitazone (3 mg/kg/day, animals 6-10, Rosi 1-5,). For the collection of epididymal fat pads and also blood samples, in each case 5 animals were sacrificed by cervical dislocation. To monitor the success of the antidiabetic treatment, HbA1c as marker of long-term blood glucose levels were measured by standard methods after finishing of the experiment.

Pim-3 [2] = test: Gene expression of Pim-3 in epididymal adipose tissue of ZDF rats treated with anti-diabetic drugs (PPARγ agonists); format: in vivo, rat; conditions: ZDF rats 20 weeks old, 3 mg/kg/day for 14 weeks, single animals Rosi 1-5 vs ZDF 1-5
Description: as §1
Collection of epididymal adipose tissue, RNA isolation and Affymetrix experiments were performed as described in experiment 1. Data analysis included the comparison of expression data of samples derived from the lean control animals versus the untreated ZDF rats as well as the comparison of the expression data derived from Rosiglitazone treated ZDF animals versus non-treated ZDF animals. […] Fold changes of gene expression for Pim-3 were analyzed using the Affymetlrix qualifier AF086624_S_AT.

[3] = 1 μM, 6 hours, Table 6a (replicate 1)
[4] = 1 μM, 6 hours, Table b (replicate 2)
[5] = 1 μM, 6 hours, Table c (replicate 3)
[6] = 1 μM, 24 hours, Table 6a (replicate 1)
[7] = 1 μM, 24 hours, Table b (replicate 2)
[8] = 1 μM, 24 hours, Table c (replicate 3)
[9] = 1 μM, 48 hours, Table 6a (replicate 1)
[10] = 1 μM, 48 hours, Table b (replicate 2)
[11] = 1 μM, 48 hours, Table c (replicate 3)
[12] = 5 μM, 6 hours, Table 6a (replicate 1)
[13] = 5 μM, 6 hours, Table b (replicate 2)
[14] = 5 μM, 6 hours, Table c (replicate 3)
[15] = 5 μM, 24 hours, Table 6a (replicate 1)
[16] = 5 μM, 24 hours, Table b (replicate 2)
[17] = 5 μM, 24 hours, Table c (replicate 3)
[18] = 5 μM, 48 hours, Table 6a (replicate 1)
[19] = 5 μM, 48 hours, Table b (replicate 2)
[20] = 5 μM, 48 hours, Table c (replicate 3)

SMILES | Fold change (PIM-3 gene expression vs DMSO control) (PIM-3 [1]; [3]) | Fold change (PIM-3 gene expression vs DMSO control) (PIM-3 [1]; [4]) | Fold change (PIM-3 gene expression vs DMSO control) (PIM-3 [1]; [5]) | Fold change (PIM-3 gene expression vs DMSO control) (PIM-3 [1]; [6]) | Fold change (PIM-3 gene expression vs DMSO control) (PIM-3 [1]; [7]) | Fold change (PIM-3 gene expression vs DMSO control) (PIM-3 [1]; [8]) | Fold change (PIM-3 gene expression vs DMSO control) (PIM-3 [1]; [9]) | Fold change (PIM-3 gene expression vs DMSO control) (PIM-3 [1]; [10]) | Fold change (PIM-3 gene expression vs DMSO control) (PIM-3 [1]; [11]) | Fold change (PIM-3 gene expression vs DMSO control) (PIM-3 [1]; [12]) | Fold change (PIM-3 gene expression vs DMSO control) (PIM-3 [1]; [13]) | Fold change (PIM-3 gene expression vs DMSO control) (PIM-3 [1]; [14]) | Fold change (PIM-3 gene expression vs DMSO control) (PIM-3 [1]; [15]) | Fold change (PIM-3 gene expression vs DMSO control) (PIM-3 [1]; [16]) | Fold change (PIM-3 gene expression vs DMSO control) (PIM-3 [1]; [17]) | Fold change (PIM-3 gene expression vs DMSO control) (PIM-3 [1]; [18]) | Fold change (PIM-3 gene expression vs DMSO control) (PIM-3 [1]; [19]) | Fold change (PIM-3 gene expression vs DMSO control) (PIM-3 [1]; [20]) | HbA1c (%) (ZDF rats) | Fold change (Pim-3 gene expression, treated ZDF rats vs untreated ZDF rats) (Pim-3 [2])
Cc1c(C)c2c(c(C)c1O)CCC(C)(COc1ccc(CC3SC(=O)NC3=O)cc1)O2 (centres unmarked) [Tro, troglitazone] | 1.7 | 1.7 | 1.8 | 1.8 | 1.6 | 1.6 | 1.8 | 1.6 | 1.6 | 2.1 | 1.7 | 2.3 | 2.7 | 1.9 | 2.0 | 2.4 | 1.9 | 2.3 | – | –
CN(CCOc1ccc(CC2SC(=O)NC2=O)cc1)c1ccccn1 (centres unmarked) [Rosi, rosiglitazone] | 2.1 | 1.5 | 2.0 | 2.9 | 2.2 | 1.9 | 2.6 | 2.0 | 2.1 | 2.2 | 1.3 | 2.2 | 2.9 | 1.9 | 1.3 | 2.6 | 1.9 | 2.0 | 4.30% and 4.27% and 4.14% (2×) and 4.13% | 1.6 (2×) and 1.3 and 1.5 and 1.4
